# Reference: patent publication US20010012854A1, “MULTICATALYTIC PROTEASE INHIBITORS FOR USE AS ANTI-TUMOR AGENTS” (priority 1997, published 2001)
# What was measured:
# [1] = biological target: MCP chymotrypsin-like activity (Homo sapiens, UniProt P28074); test: Inhibition of MCP chymotrypsin-like activity; assay type: biochemical
# Excerpt: (§1) The rank-order potency for Jurkat cell killing precisely matched the order for MCP inhibition (Table 2, below).
# Inhibition of the chymotrypsin-like activity of MCP by the disclosed MCP inhibitors has been reported, but these MCP inhibitors produced relatively little inhibition on the MCP trypsin-like activity and cathepsin B, a vacuolar cysteine protease (Iqbal, M., et al. J. Med Chem. 38: 2276-2277, 1995; Iqbal, M., et al. Bioorg. Med. Chem. Lett. 6: 287-290, 1996; and Harding, C. V., et al. J. Immuno. 155: 1767-1775, 1995). Furthermore, the order of potency for inhibition of the chymotrypsin-like activity was reported to be Compound A>Compound B>Compound C by using both isolated MCP and intact murine B cells (Iqbal, M., et al. J. Med Chem. 38: 2276-2277, 1995; Iqbal, M., et al. Bioorg. Med. Chem. Lett. 6: 287-290, 1996; and Harding, C. V., et al. J. Immuno. 155: 1767-1775, 1995).
# [2] = test system: Jurkat Human T Cell Leukemia Line; test: Jurkat cell viability assay (XTT reduction); assay type: cell-based; details: Jurkat cells, 24 hours, viability by XTT reduction, read-out: Toxicity (IC50)
# Protocol: f. Cell viability assay. Jurkat cells were treated with MCP inhibitors or vehicle for 30 min. at 37° C. Next, ionomycin (1 μM) and the phorbol ester PMA (10 ng/ml) were added, together with 0.2% ethanol. After 24 h, cell viability was assessed by reduction of XTT (Sigma, X4251). To each well, 50 μl of XTT (1 mg/ml) and 25 μl PMS (Sigma 9625, 5 mM) were added. After 3 h at 37° C., the OD of each well was read at 450 nm/690 nm by a plate reader.
# as §1
# [3] = test system: human Jurkat T cells; test: Apoptosis in Jurkat T cells (flow cytometry sub-G1 DNA content, DNA fragmentation); assay type: cell-based
# Protocol: c. Treatment of cells with MCP inhibitor. Cells were treated with a specified MCP Inhibitor, a standard anticancer agent (etoposide or cisplatin), or DMSO (vehicle). During this process, morphological changes and cellular detachment (for attached cell lines) were monitored. At each time point, cells were harvested, and used for measurement of apoptosis and other biochemical events. In Example 1, infra, involving YVAD-CMK, Compound A was first added to Jurkat T cells. This was followed immediately by dividing the cells into multiple tissue culture flasks. YVAD-CMK was then added to an indicated concentration.
# d. Flow cytometry nuclear staining and DNA fragmentation assays. DNA content analysis using flow cytometry was performed as described previously (Nicoletti, I., et al. J. Immunol. Methods 139:271-279, 1992). To assay nuclear morphology, cells were washed with PBS, fixed with 70% ethanol for 1 h, and stained with Hoechst 33258 (1 mM) for 30 min. The nuclear morphology of cells was visualized by fluorescence microscope (OLYMPUS BH2). DNA fragmentation was assayed as described previously (Grant, S., et al. Cancer Res. 52:6270-6278, 1992).
# (§2) Example 1 was designed to determine if MCP is involved in the survival signaling pathway(s) and if inhibition of MCP activity induces apoptosis. Human Jurkat T cells were treated with 30 μM Compound A for 4 h. […] Both the p112 and p115 forms of RB as p112-115/RB were combined and used as an apoptosis marker.
# When human Jurkat T cells were treated with 15 μM Compound A for 8 h, there was a 23% increase in the apoptotic population with sub-G1 DNA content (FIG. 2, panels b vs. a). By comparison, when Compound B was used, only an 8%-increase in sub-G1 population was detected (FIG. 2, panels c vs. a).
# [4] = test system: PARP, RB and caspase-3 cleavage in Jurkat T cells; test: Western blot of caspase-3, PARP and RB in Jurkat T cells; assay type: cell-based, human; details: Jurkat T cells, 15 μM, time course up to 24 h
# Protocol: e. Whole cell extracts and western blot assay. To prepare whole cell extracts, cells were washed with PBS, and homogenized in lysis buffer (50 mM Tris, pH 8.0, 5 mM EDTA, 150 mM NaCl, 0.5% Nonidet P-40, 0.5 mM PMSF and 0.5 mM dithiothreitol). Following 30 min rocking at 4° C., the lysates were centrifuged and the supernatants were collected as whole cell extracts. The protein samples were then analyzed by sodium dodecyl sulfate-6% polyacrylamide gel electrophoresis (20-60 μg protein per lane) followed by the enhanced chemiluminescence Western blot assay using specific antibodies to CPP32, PARP, p21, p27 or RB.
# as §2
# The ability of these three MCP inhibitors to induce changes in PARP and RB proteins in a parallel experiment was also investigated. […] This rank corresponded exactly to that of the three compounds for inhibition of the chymotrypsin-like activity in isolated proteasomes (Iqbal, M., et al. J. Med Chem. 38: 2276-2277, 1995; Iqbal, M., et al. Bioorg. Med. Chem. Lett. 6: 287-290, 1996) and in intact murine B cells (Harding, C. V., et al. J Immuno. 155: 1767-1775, 1995).
Compound,IC50 [1] [nM],IC50 [2] [nM],"Block of Compound A-induced apoptotic events (apoptotic peak, caspase-3 processing, PARP cleavage, RB dephosphorylation and cleavage) ([3]; added to Compound A-treated Jurkat T cells)","Increase in the apoptotic population with sub-G1 DNA content ([3]; Jurkat T cells, 15 μM, 8 h)",Production of p85/PARP and p112-115/RB [4]
COC(=O)CCCCCCCCC(C(=O)N[C@@H](CCCNC(=N)NS(=O)(=O)c1ccc2c(c1)CCC(C)(C)O2)C(=O)N[C@H](C=O)CC(C)C)C1CCCC1 (some centres unmarked) [F],10,,,,
CC(C)CC(C=NNC(N)=O)NC(=O)C(CCCNC(=N)N[N+](=O)[O-])NC(=O)C(CCCCCCCCC#N)C1CCCC1 (centres unmarked) [H],300,> 30000,,,
"Acetyl-YVAD-chloromethyl ketone [YVAD-CMK, reference compound]",,,completely blocked,,
COC(=O)CCCCCCCCC(C(=O)N[C@@H](CCCNC(=N)NS(=O)(=O)c1ccc2c(c1)CCC(C)(C)O2)C(=O)NC(C=O)CC(C)C)C1CCCC1 (some centres unmarked) [F],,1700,,,
CCNC(=O)C(=O)C(CC(C)C)NC(=O)C(CCCN/C(N)=N/[N+](=O)[O-])NC(=O)C(CCCCCCCCC#N)C1CCCC1 (centres unmarked) [Compound C],21,9700,,did not induce apoptosis,only induced little p85/PARP and p112-115/RB after 24 h
Cc1c(C)c(S(=O)(=O)NC(=N)NCCC[C@H](NC(=O)C(CCCCCCCCC#N)C2CCCC2)C(=O)N[C@H](C=O)CC(C)C)c(C)c2c1OC(C)(C)CC2 (some centres unmarked) [G],20,5700,,,
